Data: patent US20140073639A1 (priority 2012, published 2014)

Assays:
B. Anthracis = experiment: microbe, parasite or virus in culture; type: cell-based; conditions: for inhibition at 10 µM / inhibition at 30 µM / inhibition at 3 µM: Bacillus anthracis; for inhibition at 10 µM: read-out: B. Anthracis 10 μM (growth inhibition); for inhibition at 30 µM: read-out: B. Anthracis 30 μM (growth inhibition); for inhibition at 3 µM: read-out: B. Anthracis 3 μM (growth inhibition)
S. MRSA = experiment: microbe, parasite or virus in culture; type: cell-based; conditions: for inhibition at 10 µM / inhibition at 30 µM / inhibition at 3 µM: Staphylococcus aureus, MRSA; for inhibition at 10 µM: read-out: S. MRSA 10 μM (growth inhibition); for inhibition at 30 µM: read-out: S. MRSA 30 μM (growth inhibition); for inhibition at 3 µM: read-out: S. MRSA 3 μM (growth inhibition)

O=C1NC(=S)NC(=O)C1=Cc1ccc(Br)s1 [Cmpd 1]
inhibition at 10 µM (B. Anthracis): -12.4% | inhibition at 30 µM (B. Anthracis; 30 μM): 8.74% | inhibition at 10 µM (S. MRSA): 6.62% | inhibition at 30 µM (S. MRSA): 22.1%

O=C1NC(=S)S/C1=C/c1ccc(-c2ccc3c(c2)C(=O)NC3=O)o1 [Cmpd 3]
inhibition at 10 µM (B. Anthracis): 13.7% | inhibition at 30 µM (B. Anthracis; 30 μM): 87.5% | inhibition at 10 µM (S. MRSA): -0.59% | inhibition at 30 µM (S. MRSA): 61.2%

O=C(O)CCCCCN1C(=O)/C(=C2/C(=O)Nc3ccc(Br)cc32)SC1=S [Cmpd 4]
inhibition at 10 µM (B. Anthracis): 52.3% | inhibition at 30 µM (B. Anthracis; 30 μM): 91.2% | inhibition at 10 µM (S. MRSA): 41.6% | inhibition at 30 µM (S. MRSA): 69.4%

CC(C)C(C(=O)O)N1C(=O)/C(=C2/C(=O)Nc3ccccc32)SC1=S (stereo not drawn) [Cmpd 5]
B. Anthracis 10 μM (growth inhibition) (B. Anthracis): −1.33 | inhibition at 30 µM (B. Anthracis; 30 μM): 11.2% | inhibition at 10 µM (S. MRSA): 15.9% | inhibition at 30 µM (S. MRSA): 40.6%

O=C1Nc2ccccc2/C1=C1/SC(=S)N(C(Cc2ccccc2)C(=O)O)C1=O (stereo not drawn) [Cmpd 6]
inhibition at 10 µM (B. Anthracis): 19.6% | inhibition at 30 µM (B. Anthracis; 30 μM): 92.6% | inhibition at 10 µM (S. MRSA): 45.7% | inhibition at 30 µM (S. MRSA): 47.8%

COc1ccc(-c2nnc(-c3ccccc3)o2)cc1S(=O)(=O)Nc1cc2c(cc1C#N)OCO2 [Cmpd 7]
inhibition at 10 µM (B. Anthracis): 19.6% | inhibition at 30 µM (B. Anthracis; 30 μM): 74.9% | inhibition at 10 µM (S. MRSA): -7.79% | inhibition at 30 µM (S. MRSA): -1.62%

COc1ccc(-c2nc(N3CCOCC3)c3sc(=O)n(-c4ccccc4)c3n2)cc1OC [Cmpd 8]
inhibition at 10 µM (B. Anthracis): 5.32% | inhibition at 30 µM (B. Anthracis; 30 μM): 35.5% | inhibition at 10 µM (S. MRSA): -8.82% | inhibition at 30 µM (S. MRSA): 1.47%

O=C1NC(=S)NC(=O)C1=Cc1ccc(-c2ccc(Br)c(Cl)c2)o1 [Cmpd 9]
inhibition at 10 µM (B. Anthracis): 28% | inhibition at 30 µM (B. Anthracis; 30 μM): 88.4% | inhibition at 10 µM (S. MRSA): 19% | inhibition at 30 µM (S. MRSA): -4.22%

O=C1NC(=O)N(Cc2ccc(F)cc2)C(=O)/C1=C/c1ccc(Br)s1 [Cmpd 10]
inhibition at 10 µM (B. Anthracis): 10.3% | inhibition at 30 µM (B. Anthracis; 30 μM): 68.2% | inhibition at 10 µM (S. MRSA): 14.8% | inhibition at 30 µM (S. MRSA): 62.2%

COc1ccc(N2C(=O)/C(=C/c3ccc(Br)s3)C(=O)NC2=S)cc1 [Cmpd 11]
inhibition at 10 µM (B. Anthracis): 16.2% | inhibition at 30 µM (B. Anthracis; 30 μM): 47.3% | inhibition at 10 µM (S. MRSA): 14.8% | inhibition at 30 µM (S. MRSA): 42.6%

O=C1Nc2ccc(Br)cc2/C1=C1/SC(=S)N(C(Cc2ccccc2)C(=O)O)C1=O (stereo not drawn) [Cmpd 13]
B. Anthracis 10 μM (growth inhibition) (B. Anthracis): 10.27 | inhibition at 30 µM (B. Anthracis; 30 μM): 90.1% | S. MRSA 10 μM (growth inhibition) (S. MRSA): −0.58 | S. MRSA 30 μM (growth inhibition) (S. MRSA): 30.29

O=C1NC(=S)NC(=O)C1=Cc1ccc(-c2cccc(Cl)c2)o1 [Cmpd 14]
inhibition at 10 µM (B. Anthracis): 3.62% | inhibition at 30 µM (B. Anthracis; 30 μM): 27.2% | inhibition at 10 µM (S. MRSA): 7.65% | inhibition at 30 µM (S. MRSA): 47.8%

O=C1NC(=S)NC(=O)C1=Cc1ccc(-c2ccc(Cl)cc2)o1 [Cmpd 15]
inhibition at 10 µM (B. Anthracis): 3.62% | inhibition at 30 µM (B. Anthracis; 30 μM): 42.2% | inhibition at 10 µM (S. MRSA): 20% | inhibition at 30 µM (S. MRSA): 63.2%

O=C1NC(=S)NC(=O)C1=Cc1ccc(Br)cc1 [Cmpd 16]
inhibition at 3 µM (B. Anthracis): 0% | inhibition at 10 µM (B. Anthracis): 0% | inhibition at 30 µM (B. Anthracis; 30 μM): 0% | inhibition at 3 µM (S. MRSA): 13.6% | inhibition at 10 µM (S. MRSA): 12% | inhibition at 30 µM (S. MRSA): 8.76%

CC(C)C(C(=O)O)N1C(=O)/C(=C2/C(=O)Nc3ccccc32)SC1=S (stereo not drawn) [Cmpd 17]
B. Anthracis 10 μM (growth inhibition) (B. Anthracis): −2.28 | B. Anthracis 30 μM (growth inhibition) (B. Anthracis; 30 μM): 7.03 | S. MRSA 10 μM (growth inhibition) (S. MRSA): 14.85 | S. MRSA 30 μM (growth inhibition) (S. MRSA): 46.76

O=C1NC(=O)C(=Cc2ccc(Br)s2)C(=O)N1 [Cmpd 18]
inhibition at 3 µM (B. Anthracis): 0% | inhibition at 10 µM (B. Anthracis): 0% | inhibition at 30 µM (B. Anthracis; 30 μM): 0% | inhibition at 3 µM (S. MRSA): 13.6% | inhibition at 10 µM (S. MRSA): 15.2% | inhibition at 30 µM (S. MRSA): 18.4%

O=C1NC(=O)C(=Cc2ccc(Br)o2)C(=O)N1 [Cmpd 19]
inhibition at 3 µM (B. Anthracis): 3.33% | inhibition at 10 µM (B. Anthracis): 10.7% | inhibition at 30 µM (B. Anthracis; 30 μM): 12.9% | inhibition at 3 µM (S. MRSA): -1.4% | inhibition at 10 µM (S. MRSA): 2% | inhibition at 30 µM (S. MRSA): 12.6%

O=C1NC(=S)NC(=O)C1=Cc1ccc(-c2ccc(F)cc2)o1 [Cmpd 20]
inhibition at 10 µM (B. Anthracis): 17.1% | inhibition at 30 µM (B. Anthracis; 30 μM): 28.7% | inhibition at 10 µM (S. MRSA): 25.1% | inhibition at 30 µM (S. MRSA): 56%

O=C(O)CC(C(=O)O)N1C(=O)/C(=C2/C(=O)Nc3ccc(Br)cc32)SC1=S (stereo not drawn) [Cmpd 21]
inhibition at 3 µM (B. Anthracis): 15.8% | inhibition at 10 µM (B. Anthracis): 13.1% | inhibition at 30 µM (B. Anthracis; 30 μM): 14.2% | inhibition at 3 µM (S. MRSA): -6.99% | inhibition at 10 µM (S. MRSA): -2.11% | inhibition at 30 µM (S. MRSA): -2.11%
